Patent US20060251651A1, “Antagonist and agonist which bind to a strong binding site of chemokine receptor” (priority 2002, published 2006)
Several values for one entry are separate records, joined by “and”; a condition that tells them apart may be missing. Equal values may be shown once. Entries after “also recorded” stand apart in the source; their conditions may differ. Read-outs that look alike come from different tables or passages of the source.

What was measured:
[1] = target: T1, hCCR5 (Homo sapiens, UniProt P51681); assay: Anti-hCCR5 antibody binding inhibition test (flow cytometry); parameters: expressed in transfected cells; host or cells: Ba/F3 cells electroporated with linearised pEF-BOS-bsr/hCCR5, blasticidin-selected clone; details: hCCR5-CHO cells, 10 μmol/l of each compound, FITC-labeled antibody
T1 sequence (P51681 whole entry): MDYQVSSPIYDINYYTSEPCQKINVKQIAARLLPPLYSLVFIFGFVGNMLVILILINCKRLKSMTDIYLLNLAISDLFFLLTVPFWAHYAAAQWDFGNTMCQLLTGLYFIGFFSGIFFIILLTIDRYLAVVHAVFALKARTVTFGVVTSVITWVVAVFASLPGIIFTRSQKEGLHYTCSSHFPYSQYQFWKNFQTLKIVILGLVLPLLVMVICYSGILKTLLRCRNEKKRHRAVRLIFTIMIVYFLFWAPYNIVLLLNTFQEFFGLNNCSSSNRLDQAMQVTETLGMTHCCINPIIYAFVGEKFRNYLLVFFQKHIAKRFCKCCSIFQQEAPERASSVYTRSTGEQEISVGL
Procedure: […] The medium was removed from the flask, and the cells were peeled off and recovered by adding 1 mmol/l EDTA/PBS. The recovered cells were washed once with PBS and again suspended in PBS, and then the number of cells was counted. After centrifugation and subsequent removal of the supernatant by suction, the cells were suspended in an assay buffer (0.5% FBS/Ham's F-12 medium). Each of the compounds to be tested was added to the cell suspension and incubated on ice. An FITC-labeled anti-hCCR5 antibody (45531.111 or 45523.111) or an FITC-labeled isotype control antibody was further added thereto and allowed to undergo the reaction on ice under shading. After the reaction, the cells were washed twice with ice-cooled PBS and again suspended in ice-cooled FACS buffer (2% FBS/PBS), and the amount (fluorescence intensity) of the bound anti-hCCR5 antibody was measured using a flow cytometer (BECTON DICKINSON).

[2] = target: T1, hCCR5; assay: Ligand binding inhibition test for CCR5 under severe washing condition; parameters: expressed in transfected cells; host or cells: CHO-dhfr(-) stably transfected with pEF-BOS-bsr/hCCR5; details: for IC50: hCCR5-CHO cells, compound 40 minutes, washed 8 times with PBS, 4 hours at 37° C., then radioisotope-labeled ligand; for inhibitory activity, times higher than that of SCH-351125 / inhibitory activity, times higher than that of TAK-779: ratio of IC50 values under severe washing condition
Procedure: Inhibitory effects of CCR5 antagonists (e.g., TAK-779, SCH-351125 and triazaspiro[5.5]undecane derivatives) were examined using a binding test system of CCR5 endogenous ligand to CCR5.
Human CCR5 expressing cells (hCCR5-CHO cells) were inoculated into a culture plate, cultured using a medium (Ham's F-12 medium/10% FBS/Antibiotic-Antimycotic) at 37° C. for 1 day (or 2 days) in a CO2 incubator of 5% CO2 and used in the test. The medium in each well was discarded, the cells were washed with an assay buffer (Ham's F-12 medium/0.5% BSA/20 mmol/l HEPES), and the assay buffer was added to each well. A compound to be tested having respective concentration was added thereto and incubated at room temperature for 40 minutes, and then the cells were washed 8 times with PBS (1 ml/well). The assay buffer was further added and incubated at 37° C. for 4 hours. After 4 hours, the assay buffer was discarded and a radioisotope-labeled ligand was added. The culture mixture containing the cells was incubated at room temperature for 40 minutes and then washed three times with 1 ml/well of ice-cooled PBS. The cells were lysed with 1 mol/I sodium hydroxide aqueous solution, and radioactivity of the cell lysate was measured using a γ counter.

[3] = target: T1, hCCR5; assay: Inhibitory action upon the hCCR5 binding of tritium-labeled compound 1 (competition test); parameters: expressed in transfected cells; host or cells: Ba/F3 cells electroporated with linearised pEF-BOS-bsr/hCCR5, blasticidin-selected clone; details: hCCR5-CHO cells; for inhibition of the hCCR5 binding of tritium-labeled compound 1: when the concentration was increased
Procedure: Human CCR5 expressing cells (hCCR5-CHO cells) were inoculated into a culture plate, cultured using a medium (Ham's F-12 medium/10% FBS/Antibiotic-Antimycotic) at 37° C. for 1 day in a CO2 incubator of 5% CO2 and used in the test. The medium in each well was discarded, the cells were washed with an assay buffer (Ham's F-12 medium/0.5% BSA/20 mmol/l HEPES), and the assay buffer was added thereto. […] After incubation at room temperature for 2 hours, the cells were washed with 1 ml/well of ice-cooled D-PBS. The cells were lysed with 1 mol/l NaOH and neutralized, and then a scintillator (ACS II, Amersham) was added thereto. Radioactivity of each vial was measured using a liquid scintillation counter (TRI-CARB 2900TR, Perkin Elmer Life Sciences).

[4] = target: T1, hCCR5; assay: Migration test induced by MIP-1α using hCCR5-Ba/F3 cells; assay type: cell-based; parameters: expressed in transfected cells; host or cells: Ba/F3 cells electroporated with linearised pEF-BOS-bsr/hCCR5, blasticidin-selected clone; details: 24 well transwell, 3 hours; read-out: IC50, inhibition of migration of hCCR5-Ba/F3 cells by MIP-1α
Procedure: Firstly, 0.5 ml of a medium containing […] was added to the lower chamber (transwell bottom) of a 24 well transwell plate. […] The migration was started by moving the upper chamber wells of the transwell plate to the lower chamber wells containing chemokine. […] Measurement of the number of cells was carried out using a flow cytometer (BECTON DICKINSON), and the number of cells inside the gate (FSC×SSC) was counted. The number of migrated cells was defined as their ratio (%) to the count when the firstly added cells were analyzed by FACS, and the IC50 value was calculated from the inhibitory activity for the DMSO control group.

[5] = target: T1, hCCR5; assay: Persistency of hCCR5 binding in the living body of mouse after compound administration; assay type: in vivo; parameters: expressed in transfected cells; host or cells: Ba/F3 cells electroporated with linearised pEF-BOS-bsr/hCCR5, blasticidin-selected clone; details: Balb/c mouse
Procedure: The peripheral blood was centrifuged using Lymphocyte-M to prepare PBMC, and the spleen was crushed, subjected to hemolytic treatment and then washed to obtain cells. The thus prepared cells were stained with PE-labeled anti-hCCR5 antibody (45531.111). CFSE-positive hCCR5-Ba/F3 Cells were detected by a flow cytometer, and fluorescence intensity (mean value) of PE-labeled anti-hCCR5 antibodies (2D7 and 45531.111) bound to the cells was measured.
The occupying ratio was calculated by the following formulae.
Correction Value [formula]
Receptor Occupying Ratio (R) [formula]

[6] = Blood plasma levels of compound 1 in mouse after administration into abdominal cavity; assay type: in vivo; details: intraperitoneal, Balb/c mouse, read-out: blood plasma level

Compound: CCO/N=C(\c1ccc(Br)cc1)C1CCN(C2(C)CCN(C(=O)c3c(C)cc[n+]([O-])c3C)CC2)CC1 [SCH-351125]
- inhibition of binding of anti-hCCR5 antibody 45523.111 to hCCR5 expressing cells [1]: inhibited binding; also recorded: strongly inhibited
- inhibition of binding of anti-hCCR5 antibody 45531.111 to hCCR5 expressing cells [1]: weak
- IC50 [2]: 16.7 nM
- inhibition of the hCCR5 binding of tritium-labeled compound 1 [3]: complete inhibition
- IC50 [4]: 14.4 nM and 21 nM

Compound: Cc1ccc(-c2ccc3c(c2)C=C(C(=O)Nc2ccc(C[N+](C)(C)C4CCOCC4)cc2)CCC3)cc1.[Cl-] [TAK-779]
- inhibition of binding of anti-hCCR5 antibody 45523.111 to hCCR5 expressing cells [1]: only weakly; also recorded: weak inhibition
- inhibition of binding of anti-hCCR5 antibody 45531.111 to hCCR5 expressing cells [1]: only weakly and weak
- IC50 [2]: 10.4 nM
- inhibition of the hCCR5 binding of tritium-labeled compound 1 [3]: complete inhibition
- IC50 [4]: 55 nM

Compound: CCCCN1C(=O)[C@@H]([C@H](O)C2CCCCC2)NC(=O)C12CCN(Cc1ccc(Oc3ccc(C(=O)O)cc3)cc1)CC2.Cl [compound 1, (3R)-1-butyl-2,5-dioxo-3-((1R)-1-hydroxy-1-cyclohexylmethyl)-9-(4-(4-carboxyphenyloxy)phenylmethyl)-1,4,9-triazaspiro[5.5]undecane hydrochloride]
- inhibition of binding of anti-hCCR5 antibody 45523.111 to hCCR5 expressing cells [1]: strongly inhibited
- inhibition of binding of anti-hCCR5 antibody 45531.111 to hCCR5 expressing cells ([1]; hydrochloride): strongly inhibited; also recorded: strong
- inhibitory activity, times higher than that of SCH-351125 [2]: about 4 times
- inhibitory activity, times higher than that of TAK-779 [2]: about 2.5 times
- competition with TAK-779 and SCH-351125 for CCR5 ([3]; displacement curves shifted in parallel, hydrochloride): competes; also recorded: Competitively antagonizes
- hCCR5 occupied in the spleen ([5]; 3 mg/kg into abdominal cavity, 0.5 hours): 92%
- hCCR5 occupied in the spleen ([5]; 3 mg/kg into abdominal cavity, 4 hours): 55%
- hCCR5 occupied in the spleen ([5]; 3 mg/kg into abdominal cavity, 8 hours): 32%
- hCCR5 occupied in the spleen ([5]; 30 mg/kg into abdominal cavity, 0.5 hours): 96%
- hCCR5 occupied in the spleen ([5]; 30 mg/kg into abdominal cavity, 4 hours): 69%
- hCCR5 occupied in the spleen ([5]; 30 mg/kg into abdominal cavity, 8 hours): 54%
- concentration at 0.5 h ([6]; 3 mg/kg into abdominal cavity): 352 nM
- concentration at 4 h ([6]; 3 mg/kg into abdominal cavity): 5 nM
- concentration at 8 h ([6]; 3 mg/kg into abdominal cavity): 1 nM
- concentration at 0.5 h ([6]; 30 mg/kg into abdominal cavity): 1610 nM
- concentration at 4 h ([6]; 30 mg/kg into abdominal cavity): 22 nM
- concentration at 8 h ([6]; 30 mg/kg into abdominal cavity): 4 nM

Compound: CCCCN1C(=O)[C@@H]([C@H](O)C2CCCCC2)NC(=O)C12CCN(Cc1ccc(Oc3ccc(C(=O)NC)cc3)cc1)CC2.Cl [compound 2, (3R)-1-butyl-2,5-dioxo-3-((1R)-1-hydroxy-1-cyclohexylmethyl)-9-(4-(4-methylaminocarbonylphenyloxy)phenylmethyl)-1,4,9-triazaspiro[5.5]undecane hydrochloride]
- inhibition of binding of anti-hCCR5 antibody 45523.111 to hCCR5 expressing cells [1]: strongly inhibited
- inhibition of binding of anti-hCCR5 antibody 45531.111 to hCCR5 expressing cells ([1]; hydrochloride): strongly inhibited; also recorded: strong
- IC50 [2]: 1.5 nM
- inhibitory activity, times higher than that of SCH-351125 [2]: about 11 times
- inhibitory activity, times higher than that of TAK-779 [2]: about 7 times
